Experimental findings from ChEMBL document CHEMBL1641505, “17β-HSD2 inhibitors for the treatment of osteoporosis: Identification of a promising scaffold” (Bioorg Med Chem, 2011) are described below.

SMILES strings stand for the structures.

Assay [1] concerns the target T1, 17-beta-hydroxysteroid dehydrogenase type 2 (Homo sapiens) (UniProt P37059).
T1 sequence (whole entry): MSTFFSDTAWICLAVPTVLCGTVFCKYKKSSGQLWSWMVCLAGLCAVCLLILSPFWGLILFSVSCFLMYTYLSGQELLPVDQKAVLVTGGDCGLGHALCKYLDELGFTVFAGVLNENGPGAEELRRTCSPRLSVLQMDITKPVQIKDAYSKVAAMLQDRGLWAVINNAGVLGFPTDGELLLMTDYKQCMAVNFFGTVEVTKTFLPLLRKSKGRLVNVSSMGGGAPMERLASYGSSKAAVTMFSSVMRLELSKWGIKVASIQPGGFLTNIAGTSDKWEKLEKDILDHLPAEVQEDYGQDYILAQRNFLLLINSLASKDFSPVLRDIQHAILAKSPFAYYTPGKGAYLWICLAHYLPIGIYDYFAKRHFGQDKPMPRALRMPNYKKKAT
Briefly: Inhibition of [3H]E2 binding to human placental 17beta-HSD2 at 1 uM after 20 mins.

Assay [2] addresses T2, 17-beta-hydroxysteroid dehydrogenase type 1 (Homo sapiens) (UniProt P14061).
T2 sequence (whole entry): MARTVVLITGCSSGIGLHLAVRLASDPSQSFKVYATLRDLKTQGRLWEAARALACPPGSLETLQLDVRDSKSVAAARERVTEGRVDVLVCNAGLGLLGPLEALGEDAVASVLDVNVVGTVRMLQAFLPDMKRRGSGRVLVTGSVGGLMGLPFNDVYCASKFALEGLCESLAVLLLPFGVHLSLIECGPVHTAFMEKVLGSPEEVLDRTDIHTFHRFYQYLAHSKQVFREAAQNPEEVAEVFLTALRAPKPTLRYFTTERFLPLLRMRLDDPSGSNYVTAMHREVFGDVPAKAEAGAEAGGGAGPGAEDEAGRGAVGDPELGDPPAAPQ
Briefly: Inhibition of [3H]E1 binding to human placental 17beta-HSD1 at 1 uM after 20 mins.

For assay [3], the target named is T3, 17-beta-hydroxysteroid dehydrogenase type 2 (Homo sapiens, UniProt P37059).
T3 sequence (P37059 whole entry): T1 sequence (whole entry)
Briefly: Inhibition of [3H]E2 binding to human placental 17beta-HSD2 after 20 mins.

Assay [4] has as its target T4, 17-beta-hydroxysteroid dehydrogenase type 1 (Homo sapiens, UniProt P14061).
T4 sequence (P14061 whole entry): T2 sequence (whole entry)
Briefly: Inhibition of [3H]E1 binding to human placental 17beta-HSD1 after 20 mins.

The next assay is filed under the species Homo sapiens. Briefly: Selectivity ratio of IC50 for human placental 17beta-HSD1 to IC50 for human placental 17beta-HSD2.
Assay [5] deals with T5, Estrogen receptor (Homo sapiens) (UniProt P03372).
T5 sequence (whole entry): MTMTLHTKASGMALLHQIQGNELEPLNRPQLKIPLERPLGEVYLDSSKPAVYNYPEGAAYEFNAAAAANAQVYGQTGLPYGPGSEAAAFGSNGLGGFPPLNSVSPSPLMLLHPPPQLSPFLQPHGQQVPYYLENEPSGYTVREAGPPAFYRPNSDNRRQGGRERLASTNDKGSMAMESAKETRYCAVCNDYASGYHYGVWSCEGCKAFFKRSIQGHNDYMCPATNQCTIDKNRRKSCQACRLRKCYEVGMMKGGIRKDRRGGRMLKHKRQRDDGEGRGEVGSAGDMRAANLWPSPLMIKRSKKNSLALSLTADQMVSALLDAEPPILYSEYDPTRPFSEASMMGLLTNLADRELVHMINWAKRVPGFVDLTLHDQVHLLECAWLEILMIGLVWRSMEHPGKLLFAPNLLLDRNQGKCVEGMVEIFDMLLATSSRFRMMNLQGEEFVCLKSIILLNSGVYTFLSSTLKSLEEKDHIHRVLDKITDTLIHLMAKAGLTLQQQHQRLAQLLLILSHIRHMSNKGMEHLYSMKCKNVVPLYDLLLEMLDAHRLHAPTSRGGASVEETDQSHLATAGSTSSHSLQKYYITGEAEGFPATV
Briefly: Displacement of [3H]E2 from human recombinant ERalpha by liquid scintillation counting relative to estradiol.

Assay [6] has as its target Estrogen receptor beta (Homo sapiens) (UniProt Q92731). Briefly: Displacement of [3H]E2 from human recombinant ERbeta by liquid scintillation counting relative to estradiol. (In general: Loss of bound radioactivity is the signal in a displacement assay; it reports binding, not function.)

Chain of Estrogen receptor beta (Homo sapiens) (Q92731 whole entry): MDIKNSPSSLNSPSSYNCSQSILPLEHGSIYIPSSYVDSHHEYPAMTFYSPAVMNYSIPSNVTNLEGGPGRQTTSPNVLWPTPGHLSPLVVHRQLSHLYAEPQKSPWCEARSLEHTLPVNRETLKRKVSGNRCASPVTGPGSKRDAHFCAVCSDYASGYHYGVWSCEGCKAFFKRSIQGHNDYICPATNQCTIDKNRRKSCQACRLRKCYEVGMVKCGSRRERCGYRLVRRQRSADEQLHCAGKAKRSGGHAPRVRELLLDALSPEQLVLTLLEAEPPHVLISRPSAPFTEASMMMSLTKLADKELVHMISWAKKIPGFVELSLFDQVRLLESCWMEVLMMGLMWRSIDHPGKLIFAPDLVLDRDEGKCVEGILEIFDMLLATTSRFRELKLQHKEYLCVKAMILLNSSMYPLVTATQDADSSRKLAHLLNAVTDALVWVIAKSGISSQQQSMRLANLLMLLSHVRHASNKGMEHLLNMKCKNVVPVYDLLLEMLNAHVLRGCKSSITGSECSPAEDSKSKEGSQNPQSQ

For `O=[N+]([O-])c1ccc(-c2ccc3c(O)cccc3c2)cc1`, the inhibition (in general, the change of the read-out against control, counted positive when it falls) in assay [1] turned out to be 13%; in assay [2] it was 15%.

`CN(C(=O)c1ccccc1)c1cccc(-c2ccc(CO)cc2)c1`: the inhibition in assay [1] and in assay [2] was below 10% each time.

On to `CS(=O)(=O)Nc1ccc(-c2ccc3c(O)cccc3c2)cc1`, for which the figures for the inhibition in assay [1] and in assay [2] were 75% and 52%, respectively. Also, the IC50 (usually the concentration that inhibits the measured activity by half) in assay [3] was 600 nM; in assay [4] it was 614 nM. In addition, the Ratio IC50 in the assay listed under Homo sapiens came out at 1.

In the case of `Cc1cccc(S(=O)(=O)Nc2ccc(-c3ccc(O)cc3)cc2)c1`, the inhibition was 14% in assay [1] and below 10% in assay [2].

Turning to `COc1ccc(C(=O)N(C)c2cccc(-c3ccc(OC)cc3)c2)cc1`, the inhibition is 20% in assay [1] and below 10% in assay [2].

On to `COc1ccc(-c2cccc(N(C)C(=O)Cc3cccc(OC)c3)c2)cc1`, for which the inhibition in assay [1] and in assay [2] was below 10% in each case.

On to `Oc1ccc(-c2ccc3c(O)cccc3c2)cc1`, for which the values for the inhibition in assay [1] and in assay [2] were 74% and 20%, respectively. In addition, the Ratio IC50 in the assay listed under Homo sapiens amounted to 8. In addition, the Activity in assay [5] and in assay [6] was 5% each time.

As to `O=C(Nc1cccc(-c2ccc(CO)cc2)c1)c1ccccc1`, the inhibition in assay [1] and in assay [2] was below 10% each time.

In the case of `COc1ccc(-c2ccc3c(O)cccc3c2)cc1`, the inhibition in assay [1] is 20%; in assay [2] it was 28%.

For the compound `Oc1cccc2cc(-c3ccc(F)cc3)ccc12`, the inhibition in assay [1] and in assay [2] was below 10% each time.

On to `Oc1cccc2cc(-c3ccncc3)ccc12`, for which the inhibition in assay [1] is 26%; in assay [2] it was below 10%.

With `CN(C(=O)c1ccccc1)c1cccc(-c2ccc(O)cc2)c1`, the inhibition in assay [1] was 46%; in assay [2] it was below 10%.

As to `CS(=O)(=O)Nc1cccc(-c2ccc3c(O)cccc3c2)c1`, the inhibition is 22% in assay [1] and 19% in assay [2].

Consider `COc1cccc(C(=O)N(C)c2cccc(-c3ccc(CO)cc3)c2)c1`, for which the inhibition was 15% in assay [1] and below 10% in assay [2].

`CC(=O)Nc1cccc(-c2ccc3c(O)cccc3c2)c1`: the inhibition was 64% in assay [1] and 12% in assay [2]. For the same compound, the IC50 in assay [3] is 696 nM; in assay [4] it was 8520 nM. For the same compound, the Ratio IC50 in the assay filed under Homo sapiens was 12.

For the compound `Oc1cccc2cc(-c3cncnc3)ccc12`, the inhibition in assay [1] and in assay [2] was below 10% in each case.

`O=C(Nc1cccc(-c2ccc3c(O)cccc3c2)c1)c1ccccc1`: the inhibition in assay [1] and in assay [2] was below 10% throughout.

With `COc1ccc(-c2cccc(N(C)C(=O)c3cccc(OC)c3)c2)cc1`, the results for the inhibition in assay [1] and in assay [2] were 13% and 16%, respectively.

`Oc1cccc(-c2ccc3cc(O)ccc3c2)c1` showed an inhibition in assay [2] of 100%. In the assay filed under Homo sapiens, the Ratio IC50 came out at 0.02.

As for `O=C(O)c1ccc(-c2ccc3c(O)cccc3c2)cc1`, the inhibition in assay [1] was 16%; in assay [2] it was below 10%.

As for `CS(=O)(=O)Nc1ccc(-c2ccc(O)cc2)cc1`, the inhibition in assay [1] and in assay [2] was below 10% in each case.

In assay [1], `Oc1ccc2cc(-c3ccccc3O)ccc2c1` gave an inhibition below 10%.

In the case of `CN(C(=O)Cc1cccc(O)c1)c1cccc(-c2ccc(O)cc2)c1`, the inhibition in assay [2] is below 10%.

For `N#Cc1ccc(-c2ccc3c(O)cccc3c2)cc1`, the inhibition in assay [1] amounted to 12%; in assay [2], 16%.

For the compound `CNC(=O)c1cccc(-c2ccc3c(O)cccc3c2)c1`, the values for the inhibition in assay [1] and in assay [2] were 43% and below 10%, respectively.

For the compound `Cc1cccc(S(=O)(=O)Nc2ccc(-c3ccc(CO)cc3)cc2)c1`, the results for the inhibition in assay [1] and in assay [2] were 12% and below 10%, respectively.

`CS(=O)(=O)Nc1ccc(-c2ccc(CO)cc2)cc1`: the inhibition in assay [1] and in assay [2] was below 10% throughout.

For the compound `Oc1cccc(-c2ccc3c(O)cccc3c2)c1`, the inhibition in assay [1] was 32%.

In the case of `CC(=O)Nc1cccc(-c2ccc(O)cc2)c1`, the inhibition in assay [1] and in assay [2] was below 10% in each case.

With `O=C(Nc1cccc(-c2ccc(O)cc2)c1)c1ccccc1`, the inhibition in assay [1] and in assay [2] was below 10% each time.

As for `COc1ccc(C(=O)N(C)c2cccc(-c3ccc(CO)cc3)c2)cc1`, the inhibition in assay [1] is 14%; in assay [2], below 10%.

Turning to `CC(=O)c1ccc(-c2ccc3c(O)cccc3c2)cc1`, the inhibition is below 10% in assay [1] and 16% in assay [2].

On to `CNC(=O)c1ccc(-c2ccc3c(O)cccc3c2)cc1`, for which the inhibition in assay [1] is 13%; in assay [2] it was below 10%.

On to `OCc1ccc(-c2ccc3c(O)cccc3c2)cc1`, for which the results for the inhibition in assay [1] and in assay [2] were 31% and 14%, respectively.

As for `CC(=O)Nc1cccc(-c2ccc(CO)cc2)c1`, the inhibition in assay [1] and in assay [2] was below 10% in each case.

For the compound `COc1ccc(CC(=O)N(C)c2cccc(-c3ccc(CO)cc3)c2)cc1`, the inhibition in assay [1] and in assay [2] was below 10% in each case.

Take `CNS(=O)(=O)c1ccc(-c2ccc3c(O)cccc3c2)cc1`: the inhibition was determined as 57% in assay [1] and 12% in assay [2].

In the case of `COc1ccc(CC(=O)N(C)c2cccc(-c3ccc(OC)cc3)c2)cc1`, the inhibition in assay [1] was 10%; in assay [2], 25%.

`COc1ccncc1-c1ccc2c(O)cccc2c1`: the inhibition in assay [1] and in assay [2] was below 10% throughout.

In the case of `Oc1cccc2cc(-c3ccccc3)ccc12`, the values for the inhibition in assay [1] and in assay [2] were 20% and below 10%, respectively.

In assay [1], `Oc1cccc(-c2ccc3ccccc3c2)c1` showed an inhibition of 12%.

On to `COc1cccc(CC(=O)N(C)c2cccc(-c3ccc(CO)cc3)c2)c1`, for which the inhibition in assay [1] was 12%; in assay [2], below 10%.

As to `Oc1ccc2cc(-c3ccccc3)ccc2c1`, the inhibition worked out at 17% in assay [1] and 44% in assay [2].

Turning to `Oc1cccc2cc(-c3ccoc3)ccc12`, the inhibition in assay [1] is 13%; in assay [2] it was below 10%.
